Experimental findings from the SangsterLogP compilation are described below.

This series is described as follows: method code RP-HPLC, from DOI: 10.1021/jm030408h, PMID: 14971904.
Take `CCC(C)n1ncn(-c2ccc(N3CCN(c4ccc(OC[C@H]5CO[C@](Cn6cncn6)(c6ccc(Cl)cc6Cl)O5)cc4)CC3)cc2)c1=O` (stereo not given in full): the log partition coefficient (logP) (in general, a log measure of how a compound divides between an organic and an aqueous phase) came to 5.9.
Consider `C#CCCCC(=O)c1cc(C(C)(C)C)c(O)c(C(C)(C)C)c1`, for which the logP was 5.63.
Then `CN1CC(C(=O)NC2(C)OC3(O)C4CCCN4C(=O)C(Cc4ccccc4)N3C2=O)C=C2c3cccc4[nH]cc(c34)CC21` (stereo not given), with 4.38; and `CC[C@H]1OC(=O)[C@H](C)[C@@H](O[C@H]2C[C@@](C)(OC)[C@@H](O)[C@H](C)O2)[C@H](C)[C@@H](O[C@@H]2O[C@H](C)C[C@H](N(C)C)[C@H]2O)[C@](C)(O)C[C@@H](C)CN(C)[C@H](C)[C@@H](O)[C@]1(C)O`, with 0.9.
As to `CCc1nn(CCCN2CCN(c3cccc(Cl)c3)CC2)c(=O)n1CCOc1ccccc1`, the logP was 4.95.
Regarding `OC(CNCC(O)C1CCc2cc(F)ccc2O1)C1CCc2cc(F)ccc2O1` (stereo not given), the logP worked out at 2.76.
The value for `CCCCCc1cc(O)c2c(c1)OC(C)(C)[C@@H]1CCC(C)=C[C@@H]21` was 6.99.
Then `COc1ccc2c3c1O[C@H]1C[C@@H](O)C=C[C@@]31CCN(C)C2`, with 0.21; and `COc1ccc2c3c1O[C@H]1C(=O)CC[C@@]4(O)[C@@H](C2)N(C)CC[C@]314`, with 0.37; and `C[N+](C)([O-])CCC=C1c2ccccc2CCc2ccccc21`, with 3.14.
